≈ marks a conversion by molar mass, not a printed value.
Legend:
Format in all cases: in vivo
[1] = test system: Lipaphis erysimi (Kaltenbach); assay: Joint toxicity of I-72 + pyrethrin, Example 47, Table 47; conditions: Lipaphis erysimi; A = compound I-72, B = pyrethrin; cabbage leaf spraying; 48 hours; read-out: LC50
Description: Test target: Lipaphis erysimi (Kaltenbach).
(§1) Preparation of the pesticide solution: according to different test requirements, the test samples were accurately weighed respectively with an electronic analytical balance. The technical pesticides were dissolved in acetone, and then diluted with 0.1% Tween 80 water into a series of pesticide solutions with a certain concentration gradient according to the experimental design dosage.
(§2) Experimental method: first, cabbage leaves with uniform and consistent Lipaphis erysimi (Kaltenbach) were selected, with about 30-40 insects on each leaf. Then, they were evenly sprayed with the pesticide solution in the order from low dosage to high dosage according to the experimental design, with 1.5 mL of the solution for each leaf and 3 replicates for each treatment. In addition, a blank control was set up.
(§3) The treated test materials were placed in an observation room, and the temperature, humidity and illumination of the observation room could be adjusted as needed. The number of dead and live insects was investigated 48 hours later. […] Then, the co-toxicity coefficient of each ratio was calculated using the Sun Y-P method to evaluate the mixing effect (the same as in Example 1).

[2] = test system: Aphis gossypii Glover nymphs; assay: Joint toxicity of I-72 + spiropidion, Example 28, Table 28; conditions: Aphis gossypii; A = compound I-72, B = spiropidion; cotton leaf spraying; 48 hours; read-out: LC50
Description: (§4) Test target: Aphis gossypii Glover nymphs, a sensitive strain reared indoors.
as §1
as §2, with “cotton” for “cabbage”, “Aphis gossypii” for “Lipaphis erysimi (Kaltenbach)”, “mL” for “mL of the solution”
as §3

[3] = test system: 3rd-instar larvae of Agrotis ipsilon (Rottemberg); assay: whole plant or invertebrate; conditions: Agrotis ipsilon; A = compound I-72, B = metalaxyl-M; insect-dipping; 72 hours; read-out: LC50
Description: Test conditions: temperature: 24-26° C., humidity: RH 60%, and illumination: L:D=14:10
as §1
The target insects were dipped into the pesticide solution for 10 s and then taken out. Excess pesticide solution was absorbed with filter paper. […] A treatment without the pesticide was set as the blank control.
The number of dead and live insects was investigated 72 hours later. The corrected mortality rate was calculated using the Abbott's formula, and statistical analysis was performed with the DPS data processing software to obtain the toxicity regression equation and LC50 value of each single test pesticide and each mixture of different ratios.

[4] = test system: Nilaparvata lugens (Stal) nymphs; assay: Joint toxicity of I-72 + triflumezopyrim, Example 75, Table 75; conditions: Nilaparvata lugens; A = compound I-72, B = triflumezopyrim; potted-seedling spraying; 72 hours; read-out: LC50
Description: Test target: Nilaparvata lugens (Stal) nymphs, a sensitive strain reared indoors.
as §1
Experimental method: the activity of the mixture against the Nilaparvata lugens (Stal) nymphs was determined by adopting the potted-seedling spraying method. First, rice seedlings were planted in culture pots. Uniform spraying was performed with the pesticide solution in the order from low dosage to high dosage according to the experimental design, with 2 mL for each seedling. Then, Nilaparvata lugens nymphs of uniform size were transferred onto the rice seedlings, with 3 replicates for each treatment. In addition, a blank control was set up.
as §3, with “72” for “48”

[5] = test system: adult Tetranychus cinnabarinus (Boisduval); assay: Joint toxicity of I-72 + fenpropathrin, Example 39, Table 39; conditions: A = compound I-72, B = fenpropathrin, potted-seedling spraying, 72 hours, read-out: LC50
Description: Test target: adult Tetranychus cinnabarinus (Boisduval), a sensitive strain reared indoors.
as §1
Experimental method: the activity of the mixture against the adult Tetranychus cinnabarinus (Boisduval) was determined by adopting the potted-seedling spraying method. First, the adult Tetranychus cinnabarinus of uniform size were transferred onto the leaves of kidney bean seedlings at the stage when the first pair of true leaves was fully expanded. After the adult mites had stabilized, the base number was counted. Then, the uniform spraying was performed with the pesticide solution in the order from low to high dose according to the experimental design, with 1.5 mL for each seedling and 3 replicates for each treatment. […]
as §3, with “needed.” for “needed. The number of dead and live insects was investigated 48 hours later.”, “effect,” for “effect (the same”, “1.” for “1).”

[6] = test system: adult Phyllotreta vittuta Fabr.; assay: Joint toxicity of I-72 + deltamethrin, Example 45, Table 45; conditions: A = compound I-72, B = deltamethrin; potted cabbage seedling spraying; 72 hours; read-out: LC50
Description: Test target: adult Phyllotreta vittuta Fabr.
as §1
Experimental method: first, uniform and consistent potted cabbage seedlings were selected. Then, uniform spraying was performed with the pesticide solution in the order from low dosage to high dosage according to the experimental design. After air-drying in the shade, adult flea beetles were transferred onto the treated cabbage seedlings, and then glass covers were put on them, with about 30-40 adult flea beetles on each seedling and 3 replicates for each treatment. In addition, a blank control was set up.
as §3, with “72” for “48”

[7] = test system: Bemisia tabaci (Gennadius) nymphs; assay: Joint toxicity of I-72 + organophosphorus insecticides, cotton leaf-disk spraying, Example 18, Table 18; conditions: nymphs, cotton leaf-disk spraying, 96 h, A = compound I-72, B = acephate, read-out: LC50
Description: Test target: Bemisia tabaci (Gennadius) nymphs.
as §1
Experimental method: first, cotton leaves with neat and consistent Bemisia tabaci (Gennadius) nymphs were selected and made into leaf disks, with about 20 insects on each leaf disk. Then, they were evenly sprayed with the pesticide solution in the order from low dosage to high dosage according to the experimental design, with 1.5 mL for each leaf and 3 replicates for each treatment. In addition, a blank control was set up.
The treated test materials were placed in an observation room, and the temperature, humidity and illumination of the observation room could be adjusted as needed. The number of dead and live insects was investigated 96 hours later. The corrected mortality rate was calculated using the Abbott's formula, and statistical analysis was performed with the DPS data processing software to obtain the toxicity regression equation, LC50 value and 95% confidence limit of each single test pesticide and each mixture of different ratios. Then, the co-toxicity coefficient of each ratio was calculated using the Sun Y-P method to evaluate the mixing effect (the same as in Example 1).

[8] = test system: Aphis gossypii Glover nymphs; assay: Joint toxicity of I-72 + nitenpyram, Example 67, Table 67; conditions: A = compound I-72, B = nitenpyram, cotton leaf spraying, 48 hours, read-out: LC50
Description: as §4, §1
as §2, with “cotton” for “cabbage”, “Aphis gossypii” for “Lipaphis erysimi (Kaltenbach)”, “mL” for “mL of the solution”
as §3

CN(C(=O)c1ccc2c(c1)OC(F)(F)O2)c1cccc(C(=O)Nc2c(Br)cc(C(F)(C(F)(F)F)C(F)(F)F)cc2OC(F)F)c1F [Compound I-72] showed an LC50 [1] of 10.4 µg/mL, an LC50 [2] of 3.19 µg/mL and an LC50 [3] of 0.265 µg/mL (≈ 0.357 µM). The LC50 [4] was 285 µg/mL, the LC50 [5] was 34.1 µg/mL and the LC50 [6] was 1.24 µg/mL. It also gave an LC50 [7] of 5.05 µg/mL and an LC50 [8] of 3 µg/mL.

Reference: patent publication US20260198495A1, “BINARY INSECTICIDE COMPOSITION AND USE THEREOF” (SHENYANG SINOCHEM AGROCHEMICALS R & D CO., LTD., priority 2022, published 2026)
